Experimental data as given in ChEMBL document CHEMBL1201862, “PubChem BioAssay data set” (2004).
One block for each molecule: values may come before it. The source made the active and inactive calls.

Assays:
Format in all cases: functional
[1] = molecular target: Tyrosine-protein kinase BTK (Homo sapiens, UniProt Q06187)
[2] = molecular target: Hepatocyte growth factor receptor (Homo sapiens, UniProt P08581);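 also: kinase panel profiling across the kinome, with MET as the panel member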
Activin receptor type-1 = Activin receptor type-1 (Homo sapiens, UniProt Q04771); experiment: Navigating the Kinome. Panel member name: ACVR1
[3] = molecular target: Serine/threonine-protein kinase pim-1 (Homo sapiens, UniProt P11309)
[4] = molecular target: Mitogen-activated protein kinase 14 (Homo sapiens, UniProt Q16539);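 also: part of a kinome-wide panel, MAPK14 entry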
[5] = molecular target: Proto-oncogene tyrosine-protein kinase receptor Ret (Homo sapiens, UniProt P07949);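 also: measured within a kinome-wide profiling panel, RET as the panel member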
[6] = molecular target: Tyrosine-protein kinase JAK2 (Homo sapiens, UniProt O60674);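 also: JAK2 tested as one member of a kinase panel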
[7] = molecular target: Serine/threonine-protein kinase Nek2 (Homo sapiens, UniProt P51955)
[8] = molecular target: Vascular endothelial growth factor receptor 2 (Homo sapiens, UniProt P35968)
[9] = molecular target: Cyclin-dependent kinase 7 (Homo sapiens, UniProt P50613);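 also: value comes from a kinome-wide kinase profiling panel in which CDK7 is one member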
[10] = molecular target: Platelet-derived growth factor receptor alpha (Homo sapiens, UniProt P16234); experiment: Navigating the Kinome. Panel member name: PDGFRA
[11] = molecular target: Leukocyte tyrosine kinase receptor (Homo sapiens, UniProt P29376); experiment: Navigating the Kinome. Panel member name: LTK
[12] = molecular target: Leucine-rich repeat serine/threonine-protein kinase 2 (Homo sapiens, UniProt Q5S007);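 also: value from a broad kinome-wide panel profiling study in which LRRK2 was one of the kinases tested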
[13] = molecular target: Glycogen synthase kinase-3 alpha (Homo sapiens, UniProt P49840);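 also: GSK3A result taken from a broad kinome-wide kinase panel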
[14] = molecular target: ALK tyrosine kinase receptor (Homo sapiens, UniProt Q9UM73);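 also: ALK tested as one member of a kinase panel screen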
[15] = molecular target: 5'-AMP-activated protein kinase catalytic subunit alpha-1 (Homo sapiens, UniProt Q13131)
[16] = molecular target: Vascular endothelial growth factor receptor 1 (Homo sapiens, UniProt P17948);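 also: measured within a kinome-wide profiling panel, FLT1 as the panel member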
[17] = molecular target: Inhibitor of nuclear factor kappa-B kinase subunit epsilon (Homo sapiens, UniProt Q14164); experiment: Navigating the Kinome. Panel member name: IKBKE
[18] = molecular target: Serine/threonine-protein kinase TBK1 (Homo sapiens, UniProt Q9UHD2); experiment: Navigating the Kinome. Panel member name: TBK1
[19] = molecular target: Serine/threonine-protein kinase D3 (Homo sapiens, UniProt O94806);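 also: determined within a kinase panel screen, with PRKCN as the panel member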
[20] = molecular target: T1, Sentrin-specific protease 7 (Homo sapiens, UniProt Q9BQF6);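 also: Luminescence-based dose-response confirmation of ultra-high-throughput screening hits, measuring inhibition of SENP7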
T1 sequence (Q9BQF6 whole entry): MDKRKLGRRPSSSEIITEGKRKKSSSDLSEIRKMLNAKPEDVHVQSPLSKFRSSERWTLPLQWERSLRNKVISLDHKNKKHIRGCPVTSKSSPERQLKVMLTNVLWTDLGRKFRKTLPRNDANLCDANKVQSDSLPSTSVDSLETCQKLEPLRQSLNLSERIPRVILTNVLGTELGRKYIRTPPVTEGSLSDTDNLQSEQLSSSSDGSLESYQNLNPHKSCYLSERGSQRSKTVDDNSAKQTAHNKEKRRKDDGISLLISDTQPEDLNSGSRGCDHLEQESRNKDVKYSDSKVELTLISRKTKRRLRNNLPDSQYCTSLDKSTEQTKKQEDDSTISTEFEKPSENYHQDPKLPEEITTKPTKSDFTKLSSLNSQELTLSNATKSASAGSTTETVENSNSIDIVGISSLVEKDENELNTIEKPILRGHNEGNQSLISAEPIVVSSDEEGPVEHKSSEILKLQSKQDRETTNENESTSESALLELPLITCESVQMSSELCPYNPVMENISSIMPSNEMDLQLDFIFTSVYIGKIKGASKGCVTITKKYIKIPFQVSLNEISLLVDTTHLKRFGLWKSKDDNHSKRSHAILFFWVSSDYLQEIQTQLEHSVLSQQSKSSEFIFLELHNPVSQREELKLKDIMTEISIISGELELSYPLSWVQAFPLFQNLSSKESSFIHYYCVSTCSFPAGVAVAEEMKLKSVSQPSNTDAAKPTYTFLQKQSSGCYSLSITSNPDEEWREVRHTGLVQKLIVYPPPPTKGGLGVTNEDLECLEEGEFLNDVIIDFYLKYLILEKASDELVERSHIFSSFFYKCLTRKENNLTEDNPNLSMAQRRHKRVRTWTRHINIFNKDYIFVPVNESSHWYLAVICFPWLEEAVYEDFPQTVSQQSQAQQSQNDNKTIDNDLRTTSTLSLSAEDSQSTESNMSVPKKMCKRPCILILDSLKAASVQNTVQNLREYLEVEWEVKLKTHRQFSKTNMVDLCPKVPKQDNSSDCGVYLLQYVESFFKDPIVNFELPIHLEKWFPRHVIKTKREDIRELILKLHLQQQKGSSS

CHO-K1 = experiment: Counterscreen for antagonists of the orexin 1 receptor (OX1R; HCRTR1): Homogeneous time resolved fluorescence (HTRF)-based cell-based dose response assay to identify antagonists of the parental CHO-K1 cell line. [Related pubchem assays (depositor defined):AID434989, AID435008, AID463079, AID485270, AID492963, AID492964, AID492965, AID493232, AID504699, AID504701]; conditions: Cricetulus griseus;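 also: potency for inhibition of ATP-stimulated IP1 production as antagonists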
[21] = molecular target: T2, Orexin/Hypocretin receptor type 1 (Homo sapiens, UniProt O43613); experiment: Fluorescence-based cell-based high throughput dose response assay for antagonists of the orexin 1 receptor (OX1R; HCRTR1). [Related pubchem assays (depositor defined):AID434989, AID435008, AID463079, AID485270, AID492963, AID492964, AID492965, AID493232, AID504717, AID504718]
T2 sequence (O43613 whole entry): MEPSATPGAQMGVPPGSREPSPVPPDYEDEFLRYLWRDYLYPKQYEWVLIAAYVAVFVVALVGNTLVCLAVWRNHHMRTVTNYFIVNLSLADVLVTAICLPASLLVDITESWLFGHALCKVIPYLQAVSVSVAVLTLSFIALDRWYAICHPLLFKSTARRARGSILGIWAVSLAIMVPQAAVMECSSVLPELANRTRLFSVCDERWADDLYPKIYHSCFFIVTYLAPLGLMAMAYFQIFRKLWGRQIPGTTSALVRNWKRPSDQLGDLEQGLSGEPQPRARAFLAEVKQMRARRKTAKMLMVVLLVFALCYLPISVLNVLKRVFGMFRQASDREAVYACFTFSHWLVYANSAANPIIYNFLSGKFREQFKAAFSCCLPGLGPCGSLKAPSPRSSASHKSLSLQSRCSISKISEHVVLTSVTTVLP

Proto-oncogene tyrosine-protein kinase receptor Ret, sequence (P07949 whole entry): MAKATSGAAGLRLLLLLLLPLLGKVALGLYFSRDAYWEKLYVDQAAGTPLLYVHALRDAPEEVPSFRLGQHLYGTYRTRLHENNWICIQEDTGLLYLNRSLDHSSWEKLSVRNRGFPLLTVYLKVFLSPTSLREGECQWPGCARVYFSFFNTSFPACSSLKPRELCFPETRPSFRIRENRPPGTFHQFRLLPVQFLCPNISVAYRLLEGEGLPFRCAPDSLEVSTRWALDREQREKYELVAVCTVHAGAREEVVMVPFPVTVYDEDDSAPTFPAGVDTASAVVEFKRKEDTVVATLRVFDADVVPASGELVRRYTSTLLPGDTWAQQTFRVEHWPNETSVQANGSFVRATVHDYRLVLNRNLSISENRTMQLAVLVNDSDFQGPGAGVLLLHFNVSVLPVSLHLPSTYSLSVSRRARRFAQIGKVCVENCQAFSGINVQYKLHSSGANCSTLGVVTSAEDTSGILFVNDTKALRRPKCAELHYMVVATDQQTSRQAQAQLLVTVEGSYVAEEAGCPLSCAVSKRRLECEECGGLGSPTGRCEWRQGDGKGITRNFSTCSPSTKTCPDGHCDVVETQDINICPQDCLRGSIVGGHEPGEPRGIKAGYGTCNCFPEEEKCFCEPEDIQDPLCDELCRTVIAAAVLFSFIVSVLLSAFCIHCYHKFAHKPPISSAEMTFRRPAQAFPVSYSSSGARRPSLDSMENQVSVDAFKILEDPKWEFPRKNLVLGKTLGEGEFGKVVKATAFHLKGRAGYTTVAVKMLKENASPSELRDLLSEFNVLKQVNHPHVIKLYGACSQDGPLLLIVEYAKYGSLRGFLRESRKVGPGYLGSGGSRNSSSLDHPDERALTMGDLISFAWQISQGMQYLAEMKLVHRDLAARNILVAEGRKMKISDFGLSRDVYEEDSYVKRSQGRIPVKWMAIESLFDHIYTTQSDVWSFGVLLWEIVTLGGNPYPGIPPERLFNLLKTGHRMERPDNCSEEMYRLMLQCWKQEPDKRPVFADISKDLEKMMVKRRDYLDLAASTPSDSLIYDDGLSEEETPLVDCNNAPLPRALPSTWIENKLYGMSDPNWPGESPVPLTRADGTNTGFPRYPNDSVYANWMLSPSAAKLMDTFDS
Vascular endothelial growth factor receptor 2, sequence (P35968 whole entry): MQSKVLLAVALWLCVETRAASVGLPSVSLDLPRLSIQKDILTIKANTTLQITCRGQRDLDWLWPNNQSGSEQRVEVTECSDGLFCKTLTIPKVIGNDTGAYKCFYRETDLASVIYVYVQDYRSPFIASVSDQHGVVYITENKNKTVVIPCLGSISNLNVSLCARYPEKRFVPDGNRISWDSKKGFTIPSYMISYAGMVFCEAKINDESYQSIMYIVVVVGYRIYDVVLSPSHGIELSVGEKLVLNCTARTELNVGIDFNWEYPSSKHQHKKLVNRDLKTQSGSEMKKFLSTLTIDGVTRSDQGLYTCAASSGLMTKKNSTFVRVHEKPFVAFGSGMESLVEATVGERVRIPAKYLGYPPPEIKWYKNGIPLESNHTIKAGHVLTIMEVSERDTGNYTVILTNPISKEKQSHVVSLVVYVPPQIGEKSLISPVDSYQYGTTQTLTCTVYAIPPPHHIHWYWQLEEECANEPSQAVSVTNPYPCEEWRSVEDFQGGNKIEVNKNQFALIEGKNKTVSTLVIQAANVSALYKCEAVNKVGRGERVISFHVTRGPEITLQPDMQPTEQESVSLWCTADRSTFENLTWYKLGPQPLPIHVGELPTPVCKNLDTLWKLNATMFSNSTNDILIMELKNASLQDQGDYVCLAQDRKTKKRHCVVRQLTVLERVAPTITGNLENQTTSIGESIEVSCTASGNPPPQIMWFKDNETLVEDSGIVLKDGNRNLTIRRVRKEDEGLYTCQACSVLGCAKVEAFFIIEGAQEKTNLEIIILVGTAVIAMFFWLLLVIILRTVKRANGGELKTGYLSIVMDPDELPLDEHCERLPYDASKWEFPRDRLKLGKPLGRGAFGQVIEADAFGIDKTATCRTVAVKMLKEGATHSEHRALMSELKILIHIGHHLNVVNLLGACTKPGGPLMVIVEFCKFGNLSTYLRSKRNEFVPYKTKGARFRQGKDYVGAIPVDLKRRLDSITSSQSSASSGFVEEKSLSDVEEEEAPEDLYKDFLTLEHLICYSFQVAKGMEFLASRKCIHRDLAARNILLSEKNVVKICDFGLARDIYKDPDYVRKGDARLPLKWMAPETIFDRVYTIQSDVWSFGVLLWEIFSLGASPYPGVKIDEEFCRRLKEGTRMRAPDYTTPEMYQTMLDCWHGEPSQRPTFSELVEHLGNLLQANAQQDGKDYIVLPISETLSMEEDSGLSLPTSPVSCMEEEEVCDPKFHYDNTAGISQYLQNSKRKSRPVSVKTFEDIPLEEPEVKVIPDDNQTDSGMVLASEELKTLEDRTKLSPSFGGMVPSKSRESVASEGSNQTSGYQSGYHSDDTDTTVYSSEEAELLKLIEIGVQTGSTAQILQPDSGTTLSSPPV
Platelet-derived growth factor receptor alpha, sequence (P16234 whole entry): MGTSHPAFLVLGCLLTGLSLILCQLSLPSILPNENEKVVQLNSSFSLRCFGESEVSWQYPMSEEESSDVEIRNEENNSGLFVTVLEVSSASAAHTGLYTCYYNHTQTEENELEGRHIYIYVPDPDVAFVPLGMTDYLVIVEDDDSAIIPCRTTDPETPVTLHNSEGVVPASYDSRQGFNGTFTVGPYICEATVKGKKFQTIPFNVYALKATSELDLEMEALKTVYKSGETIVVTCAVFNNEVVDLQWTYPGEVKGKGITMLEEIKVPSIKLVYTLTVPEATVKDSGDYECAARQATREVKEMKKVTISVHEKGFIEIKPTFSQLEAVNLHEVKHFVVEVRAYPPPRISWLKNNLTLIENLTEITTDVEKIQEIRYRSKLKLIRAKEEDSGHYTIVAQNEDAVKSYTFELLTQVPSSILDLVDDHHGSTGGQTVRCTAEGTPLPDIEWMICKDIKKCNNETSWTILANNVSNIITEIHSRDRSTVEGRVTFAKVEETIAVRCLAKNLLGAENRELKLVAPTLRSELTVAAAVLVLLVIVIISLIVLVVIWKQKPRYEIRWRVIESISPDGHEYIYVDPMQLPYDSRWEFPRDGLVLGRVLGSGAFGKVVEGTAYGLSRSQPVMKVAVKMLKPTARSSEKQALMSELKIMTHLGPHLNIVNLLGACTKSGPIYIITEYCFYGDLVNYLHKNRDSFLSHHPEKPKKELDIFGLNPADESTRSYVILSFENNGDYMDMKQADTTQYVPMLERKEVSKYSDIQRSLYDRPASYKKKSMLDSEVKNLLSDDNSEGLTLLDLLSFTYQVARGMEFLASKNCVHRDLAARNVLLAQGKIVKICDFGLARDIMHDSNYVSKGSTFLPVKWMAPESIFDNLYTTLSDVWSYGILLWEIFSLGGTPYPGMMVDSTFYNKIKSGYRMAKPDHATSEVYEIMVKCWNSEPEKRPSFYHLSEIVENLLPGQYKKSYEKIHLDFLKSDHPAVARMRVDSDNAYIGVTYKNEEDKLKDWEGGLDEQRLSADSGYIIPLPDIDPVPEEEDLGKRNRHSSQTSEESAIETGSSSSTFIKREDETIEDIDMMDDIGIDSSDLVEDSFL
Tyrosine-protein kinase JAK2, sequence (O60674 whole entry): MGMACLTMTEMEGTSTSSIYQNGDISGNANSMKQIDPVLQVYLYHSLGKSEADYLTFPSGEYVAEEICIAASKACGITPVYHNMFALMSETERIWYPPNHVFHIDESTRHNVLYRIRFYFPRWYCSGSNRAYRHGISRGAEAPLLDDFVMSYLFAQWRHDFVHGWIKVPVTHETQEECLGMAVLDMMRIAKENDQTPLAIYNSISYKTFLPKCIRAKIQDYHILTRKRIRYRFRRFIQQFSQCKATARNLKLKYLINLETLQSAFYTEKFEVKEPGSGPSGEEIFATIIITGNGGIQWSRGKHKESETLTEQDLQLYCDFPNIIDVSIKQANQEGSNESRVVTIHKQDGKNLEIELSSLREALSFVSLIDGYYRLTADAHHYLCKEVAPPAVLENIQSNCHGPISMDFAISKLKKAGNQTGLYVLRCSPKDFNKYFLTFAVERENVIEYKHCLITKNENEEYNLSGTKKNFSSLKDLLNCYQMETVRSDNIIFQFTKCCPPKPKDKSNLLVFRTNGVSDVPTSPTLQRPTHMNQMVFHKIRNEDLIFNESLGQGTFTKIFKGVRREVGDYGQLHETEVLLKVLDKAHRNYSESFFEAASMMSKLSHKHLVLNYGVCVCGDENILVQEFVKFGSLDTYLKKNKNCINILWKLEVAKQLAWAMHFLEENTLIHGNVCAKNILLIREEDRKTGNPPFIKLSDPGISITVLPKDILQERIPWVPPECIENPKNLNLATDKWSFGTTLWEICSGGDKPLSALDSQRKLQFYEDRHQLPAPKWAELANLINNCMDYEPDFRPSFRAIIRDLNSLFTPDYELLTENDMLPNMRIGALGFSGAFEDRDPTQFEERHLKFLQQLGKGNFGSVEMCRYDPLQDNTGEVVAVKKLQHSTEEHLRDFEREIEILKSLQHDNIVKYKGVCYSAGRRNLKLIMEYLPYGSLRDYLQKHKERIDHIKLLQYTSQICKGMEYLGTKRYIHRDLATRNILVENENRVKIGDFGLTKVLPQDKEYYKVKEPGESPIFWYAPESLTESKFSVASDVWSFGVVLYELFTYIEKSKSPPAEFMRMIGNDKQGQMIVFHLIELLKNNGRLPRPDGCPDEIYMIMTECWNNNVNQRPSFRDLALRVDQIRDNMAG
Mitogen-activated protein kinase 14, sequence (Q16539 whole entry): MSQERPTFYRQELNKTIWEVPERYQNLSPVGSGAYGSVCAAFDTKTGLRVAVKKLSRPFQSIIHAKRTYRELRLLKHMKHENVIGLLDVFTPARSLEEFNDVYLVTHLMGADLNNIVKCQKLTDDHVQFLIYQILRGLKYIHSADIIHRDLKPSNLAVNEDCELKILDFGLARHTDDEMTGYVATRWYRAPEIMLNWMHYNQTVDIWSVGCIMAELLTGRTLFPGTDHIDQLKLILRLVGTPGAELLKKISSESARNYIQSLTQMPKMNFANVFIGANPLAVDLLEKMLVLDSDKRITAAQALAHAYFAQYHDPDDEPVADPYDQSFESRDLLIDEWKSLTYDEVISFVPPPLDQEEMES

Ki [1]: > 6.31 µM (inactive)
Ki [2]: > 2.51 µM (inactive)
Ki (Activin receptor type-1): 1.26 µM (active)
Ki [3]: 3.98 µM (active)
Ki [4]: > 3.98 µM (inactive)
Ki [5]: > 3.16 µM (inactive)
Ki [6]: > 2.51 µM (inactive)
Ki [7]: > 3.16 µM (inactive)
Ki [8]: 2 µM (active)
Ki [9]: 1 µM (active)
Ki [10]: > 2.51 µM (inactive)
Ki [11]: > 2.51 µM (inactive)
Ki [12]: 0.631 µM (active)
Ki [13]: > 3.98 µM (inactive)
Ki [14]: > 6.31 µM (inactive)
Ki [15]: 2 µM (active)
Ki [16]: > 3.98 µM (inactive)
Ki [17]: > 3.16 µM (inactive)
Ki [18]: > 3.16 µM (inactive)
Ki [19]: > 3.98 µM (inactive)
Structure (SMILES): O=C(NCCc1cccs1)N1CC=C(c2c[nH]c3ncccc23)CC1

Structure (SMILES): Cc1ccnc2ccc(-c3nc4ccccc4o3)cc12
IC50 [20]: 2.2 µM (active)
IC50 (CHO-K1): > 66.2 µM (inactive)
IC50 [21]: 4.26 µM (active)
